Where “and” joins values, the source holds several entries; their conditions need not be identical. Equal entries are not always repeated.

The term T/C denotes the result in the treated group divided by that in the control group, in per cent.

The assay deals with C57BL/6 mice, Adenocarcinoma 755 sc, tumor weight T/C. The assay can be described thus: NCI In Vivo Anticancer Drug Screen. Data for tumor model Adenocarcinoma 755 (subcutaneous) in C57BL/6 mice. The settings on record: endpoint: mean tumor weight, higher = larger tumour. How it is done:
The antitumor activity of compounds was measured in mice bearing transplantable tumors. Survival or tumor size were measured and the results are expressed as the measurement made in the treated group (T) divided by the measurement made in the vehicle treated control group (C). The tumor model used in this assay is Adenocarcinoma 755 (subcutaneous) in C57BL/6 mice

Setting [1] is: dose: 50.0 mg/kg/injection, schedule: Q01DX011 (ip), vehicle: saline.
[2] abbreviates: dose: 15.0 mg/kg/injection, schedule: Q01DX011 (ip), vehicle: saline.
Where [3] appears, read: dose: 20.0 mg/kg/injection, schedule: Q01DX011 (ip), vehicle: saline.
Setting [4] is: dose: 30.0 mg/kg/injection, schedule: Q01DX011 (ip), vehicle: saline.
Where [5] appears, read: dose: 40.0 mg/kg/injection, schedule: Q01DX011 (ip), vehicle: saline.
[6] abbreviates: dose: 12.5 mg/kg/injection, schedule: Q01DX011 (ip), vehicle: saline.
[7] abbreviates: dose: 25.0 mg/kg/injection, schedule: Q01DX011 (ip), vehicle: saline.
Where [8] appears, read: dose: 100.0 mg/kg/injection, schedule: Q01DX011 (ip), vehicle: saline.
[9] abbreviates: dose: 150.0 mg/kg/injection, schedule: Q01DX011 (ip), vehicle: saline.
[10] abbreviates: dose: 200.0 mg/kg/injection, schedule: Q01DX011 (ip), vehicle: saline.

As to `NNc1nc2nc[nH]c2c(=O)[nH]1`, the T/C under setting [1] was 35 % of control.
With `CN1CC(=O)N=C1N`, under “dose: 1000.0 mg/kg/injection, schedule: Q01DX011 (ip), vehicle: saline”, the T/C is 121 % of control.
For `CCCCNc1ncnc2nc[nH]c12`, the T/C (dose: 30.0 mg/kg/injection, schedule: Q01DX011 (ip), vehicle: carboxymethylcellulose (CMC)) was 91 % of control.
Consider `O=C1C(NC(=O)C2CCCCC2)=C(N2CC2)C(=O)C(NC(=O)C2CCCCC2)=C1N1CC1`, for which the T/C was 97 % of control (dose: 16.0 mg/kg/injection, schedule: Q01DX009 (ip), vehicle: saline); 56 % of control (dose: 32.0 mg/kg/injection, schedule: Q01DX009 (ip), vehicle: saline); 83 % of control (dose: 64.0 mg/kg/injection, schedule: Q01DX009 (ip), vehicle: saline).
`c1cn[nH]c1`: the T/C is, setting by setting: (dose: 8.0 mg/kg/injection, schedule: Q01DX006 (iv), vehicle: saline) 64 % of control; (dose: 12.5 mg/kg/injection, schedule: Q01DX011 (oral), vehicle: saline) 61 % of control; (dose: 25.0 mg/kg/injection, schedule: Q01DX011 (oral), vehicle: saline) 45 % of control; (dose: 32.0 mg/kg/injection, schedule: Q01DX006 (iv), vehicle: saline) 94 % of control; (dose: 50.0 mg/kg/injection, schedule: Q01DX011 (oral), vehicle: saline) 9 % of control; (dose: 64.0 mg/kg/injection, schedule: Q01DX006 (iv), vehicle: saline) 53 % of control.
Take `Cn1cnc([N+](=O)[O-])c1Sc1nc(N)nc2nc[nH]c12`: the T/C (dose: 5.0 mg/kg/injection, schedule: Q01DX011 (oral), vehicle: saline) is 2 % of control.
Turning to `CCc1nc(N)nc(N)c1-c1ccc(Cl)cc1`, the T/C under setting [1] was 67 % of control.
As to `Nc1ncnc2[nH]ncc12`, the T/C (dose: 10.0 mg/kg/injection, schedule: Q02DX006 (ip), vehicle: other) is 28 % of control; the T/C under setting [2] is 7 % of control and 22 % of control; the T/C under setting [3] was 9 % of control; the T/C (dose: 20.0 mg/kg/injection, schedule: Q02DX006 (ip), vehicle: other) is 16 % of control; the T/C (dose: 40.0 mg/kg/injection, schedule: Q02DX006 (ip), vehicle: other) was 4 % of control.
On to `O=C(O)c1cc(=O)[nH]c(=S)[nH]1`, for which the T/C was 91 % of control under setting [3], 121 % of control under setting [4], 78 % of control under setting [5] and 82 % of control under setting [1].
As for `Clc1ncnc2c1ncn2Cc1ccco1`, the T/C was 63 % of control under setting [6], 62 % of control under setting [7], 86 % of control under setting [1] and 51 % of control under setting [8].
With `Nc1nc(=S)c2ncn(C3OC(COC(=O)c4ccccc4)C(OC(=O)c4ccccc4)C3OC(=O)c3ccccc3)c2[nH]1` (centres undefined), the T/C was 90 % of control (dose: 3.1 mg/kg/injection, schedule: Q01DX011 (ip), vehicle: methylcellulose (MC)); 62 % of control (dose: 6.25 mg/kg/injection, schedule: Q01DX011 (ip), vehicle: methylcellulose (MC)); 77 % of control (dose: 12.5 mg/kg/injection, schedule: Q01DX011 (ip), vehicle: methylcellulose (MC)); 16 % of control (dose: 25.0 mg/kg/injection, schedule: Q01DX011 (ip), vehicle: methylcellulose (MC)).
As for `CCNc1ncnc2[nH]ncc12`, the T/C runs as follows: under setting [2], 13 % of control; under setting [3], 4 % of control.
For the compound `CCCCn1cnc2c(SSc3ncnc4c3ncn4CCCC)ncnc21`, the T/C runs as follows: (dose: 3.75 mg/kg/injection, schedule: Q01DX011 (ip), vehicle: saline) 26 % of control; (dose: 7.5 mg/kg/injection, schedule: Q01DX011 (ip), vehicle: saline) 7 % of control; under setting [2], 7 % of control; under setting [4], 6 % of control.
Take `Clc1nc(Cl)c2[nH]cnc2n1`: the T/C under setting [3] was 110 % of control and the T/C under setting [5] is 82 % of control.
On to `CCCCNc1nc(N(C)C)nc2nc[nH]c12`, for which the T/C by setting is: (dose: 37.0 mg/kg/injection, schedule: Q01DX011 (ip), vehicle: saline) 80 % of control; (dose: 75.0 mg/kg/injection, schedule: Q01DX011 (ip), vehicle: saline) 29 % of control; (dose: 90.0 mg/kg/injection, schedule: Q01DX011 (ip), vehicle: saline) 56 % of control; (dose: 125.0 mg/kg/injection, schedule: Q01DX011 (ip), vehicle: saline) 47 % of control.
With `CCSCCC(N)C(=O)O` (centres undefined), the T/C is 113 % of control under setting [1]; 67 % of control (dose: 75.0 mg/kg/injection, schedule: Q02DX006 (ip), vehicle: other); 67 % of control and 78 % of control under setting [8]; 65 % of control (dose: 100.0 mg/kg/injection, schedule: Q02DX006 (ip), vehicle: other); 72 % of control under setting [9].
With `NNc1ncnc2nc[nH]c12`, the T/C is 67 % of control under setting [4] and 34 % of control (dose: 60.0 mg/kg/injection, schedule: Q01DX011 (ip), vehicle: saline).
Turning to `CC(=O)OCC(=O)[C@@]1(O)CC[C@H]2[C@@H]3CCC4=CC(=O)CC[C@]4(C)[C@H]3C(=O)C[C@@]21C`, the T/C (dose: 40.0 mg/kg/injection, schedule: Q01DX011 (sc), vehicle: saline) was 24 % of control; the T/C (dose: 45.0 mg/kg/injection, schedule: Q01DX011 (sc), vehicle: saline) was 43 % of control; the T/C (dose: 50.0 mg/kg/injection, schedule: Q01DX011 (sc), vehicle: saline) was 16 % of control; the T/C (dose: 60.0 mg/kg/injection, schedule: Q01DX011 (sc), vehicle: saline) was 15 % of control and 39 % of control; the T/C (dose: 100.0 mg/kg/injection, schedule: Q01DX011 (sc), vehicle: saline) is 8 % of control.
Turning to `O=c1[nH]cnc2n[nH]nc12`, the T/C is 55 % of control under setting [9] and 20 % of control under setting [10].
In the case of `Cc1c2ccccc2c(C)c2c1ccc1ccccc12`, the T/C is, setting by setting: (dose: 9.0 mg/kg/injection, schedule: Q01DX011 (ip), vehicle: saline) 44 % of control; (dose: 19.0 mg/kg/injection, schedule: Q01DX011 (ip), vehicle: saline) 19 % of control.
With `O=c1[nH][nH]c(=O)[nH]1`, the T/C under setting [10] is 85 % of control and the T/C (dose: 225.0 mg/kg/injection, schedule: Q01DX011 (ip), vehicle: saline) was 94 % of control.
Regarding `CCCCCCCCCNc1ncnc2[nH]ncc12`, the T/C is 51 % of control under setting [1] and 64 % of control under setting [8].
For `Nc1[nH]c(=S)nc2nc[nH]c12`, the T/C is 46 % of control (dose: 5.0 mg/kg/injection, schedule: Q02DX006 (ip), vehicle: saline); 33 % of control (dose: 6.0 mg/kg/injection, schedule: Q02DX006 (ip), vehicle: saline); 25 % of control (dose: 8.0 mg/kg/injection, schedule: Q02DX006 (ip), vehicle: saline).
Take `Cn1c(N)nc2nc[nH]c2c1=S`: the T/C runs as follows: (dose: 1.0 mg/kg/injection, schedule: Q01DX008 (iv), vehicle: saline) 169 % of control; (dose: 2.0 mg/kg/injection, schedule: Q01DX008 (iv), vehicle: saline) 173 % of control; (dose: 4.0 mg/kg/injection, schedule: Q01DX008 (iv), vehicle: saline) 79 % of control; (dose: 32.0 mg/kg/injection, schedule: Q01DX008 (iv), vehicle: saline) 67 % of control; (dose: 64.0 mg/kg/injection, schedule: Q01DX008 (iv), vehicle: saline) 65 % of control.
In the case of `Cn1cnc([N+](=O)[O-])c1Sc1ccccc1`, the T/C is, setting by setting: under setting [7], 84 % of control; under setting [1], 47 % of control; under setting [8], 53 % of control.
Regarding `O=P1(N(CCF)CCCl)NCCCO1` (centres undefined), the T/C (dose: 6.25 mg/kg/injection, schedule: Q01DX011 (ip), vehicle: saline) is 76 % of control; the T/C under setting [6] is 94 % of control; the T/C under setting [7] is 66 % of control; the T/C under setting [1] is 88 % of control.
Turning to `CCCCCCCCCCCNc1ncnc2[nH]ncc12`, the T/C is 46 % of control under setting [1] and 41 % of control under setting [8].
Consider `N/C(=N\N=C\c1cccc([N+](=O)[O-])c1)N[N+](=O)[O-]`, for which the T/C (dose: 150.0 mg/kg/injection, schedule: Q02DX006 (ip), vehicle: saline) is 24 % of control and the T/C (dose: 200.0 mg/kg/injection, schedule: Q02DX006 (ip), vehicle: saline) was 41 % of control.
On to `CSc1nc(N)nc2nc[nH]c12`, for which the T/C is, setting by setting: (dose: 10.0 mg/kg/injection, schedule: Q01DX011 (ip), vehicle: saline) 1 % of control; under setting [2], 1 % of control.

For the origin of these results see PubChem BioAssay AID218 (DTP/NCI, 2004).
